Results published in ChEMBL document CHEMBL1909046, “DrugMatrix in vitro pharmacology data”.
Where a SMILES comes first, the peptide text is derived from it. Bridges are numbered along the chain shown (N, C = ends). [ ]: non-standard residue; d: D form. The star is where a group is joined. Ileψ(thiazoline)Cys = CC[C@H](C)[C@H](N)C1=N[C@H](C(=O)*)CS1; dOrn = NCCC[C@@H](N)C(=O)O

Assays:
Estrogen receptor beta = Estrogen receptor beta (Homo sapiens, UniProt Q92731); settings: sf9; also: in other assays of this panel Not Active means under 50% inhibition at 10 µM
Insulin receptor = Insulin receptor (Rattus norvegicus, UniProt P15127); assay type: cell membranes, Wistar, Liver, Membrane; also: in other assays of this panel Not Active means under 50% inhibition at 10 µM
[1] = target: cGMP-specific 3',5'-cyclic phosphodiesterase (Homo sapiens, UniProt O76074); assay: DRUGMATRIX: Phosphodiesterase PDE5 enzyme inhibition (substrate: [3H]cGMP + cGMP); assay type: tissue-based, Platelet; settings: platelet; Not Active = under 50% inhibition at 10 µM
[2] = DRUGMATRIX: ATPase, Na+/K+ enzyme inhibition (substrate: ATP); assay type: tissue-based, Sus scrofa, Heart; settings: Not Active = under 50% inhibition at 10 µM
Leukotriene C4 synthase = target: T1, Leukotriene C4 synthase (Cavia porcellus, UniProt A6XA80); assay: biochemical; assay type: tissue-based, Lung;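 also: enzyme inhibition assay of leukotriene C4 synthase, using LTA4 as the substrate; in other assays of this panel Not Active means under 50% inhibition at 10 µM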
T1 sequence (A6XA80 whole entry): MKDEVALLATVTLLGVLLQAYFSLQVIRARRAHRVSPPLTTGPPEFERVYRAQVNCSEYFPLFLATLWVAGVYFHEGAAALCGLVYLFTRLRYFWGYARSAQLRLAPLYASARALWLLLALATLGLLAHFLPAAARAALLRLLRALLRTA

[3] = DRUGMATRIX: Glutamate, AMPA radioligand binding (ligand: [3H] AMPA); assay type: cell membranes, Rattus norvegicus, Wistar, Cerebral cortex, Membrane; settings: Not Active = under 50% inhibition at 10 µM
Neutrophil elastase = target: T2, Neutrophil elastase (Homo sapiens, UniProt P08246); assay type: tissue-based;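 also: inhibition of neutrophil elastase enzyme activity, measured with a p-nitroanilide-linked peptide substrate; in other assays of this panel Not Active means under 50% inhibition at 10 µM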
T2 sequence (P08246 whole entry): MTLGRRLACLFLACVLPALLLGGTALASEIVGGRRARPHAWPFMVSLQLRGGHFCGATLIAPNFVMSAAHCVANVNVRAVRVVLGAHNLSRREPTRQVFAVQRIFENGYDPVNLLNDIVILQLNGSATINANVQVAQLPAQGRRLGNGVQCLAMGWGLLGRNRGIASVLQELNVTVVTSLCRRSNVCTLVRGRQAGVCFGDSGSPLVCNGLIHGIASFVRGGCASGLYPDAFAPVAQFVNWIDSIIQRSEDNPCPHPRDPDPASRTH

[4] = DRUGMATRIX: Glutamate, Kainate radioligand binding (ligand: [3H] Kainic acid); assay type: cell membranes, Rattus norvegicus, Wistar, Brain, Membrane; settings: Not Active = under 50% inhibition at 10 µM
[5] = DRUGMATRIX: Phorbol Ester radioligand binding (ligand: [3H] PDBu); assay type: cell membranes, Mus musculus, ICR, Brain, Membrane; settings: Not Active = under 50% inhibition at 10 µM
[6] = target: T3, Neuropeptide Y receptor type 1 (Homo sapiens, UniProt P25929); assay type: cell membranes, Membrane; settings: sk-n-mc; also: in other assays of this panel Not Active means under 50% inhibition at 10 µM
T3 sequence (P25929 whole entry): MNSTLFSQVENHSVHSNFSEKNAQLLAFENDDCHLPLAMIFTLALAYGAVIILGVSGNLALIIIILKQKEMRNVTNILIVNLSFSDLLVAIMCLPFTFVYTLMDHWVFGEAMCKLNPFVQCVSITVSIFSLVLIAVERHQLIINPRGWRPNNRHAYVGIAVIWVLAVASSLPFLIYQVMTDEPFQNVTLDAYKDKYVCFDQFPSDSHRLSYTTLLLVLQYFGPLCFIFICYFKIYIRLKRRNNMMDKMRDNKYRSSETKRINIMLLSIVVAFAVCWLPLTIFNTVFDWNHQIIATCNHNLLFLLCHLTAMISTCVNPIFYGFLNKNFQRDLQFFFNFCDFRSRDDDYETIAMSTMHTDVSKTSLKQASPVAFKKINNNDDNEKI

[7] = target: T4, C-C chemokine receptor type 4 (Homo sapiens, UniProt P51679); assay type: cell membranes, Membrane; settings: chem-1; also: in other assays of this panel Not Active means under 50% inhibition at 10 µM
T4 sequence (P51679 whole entry): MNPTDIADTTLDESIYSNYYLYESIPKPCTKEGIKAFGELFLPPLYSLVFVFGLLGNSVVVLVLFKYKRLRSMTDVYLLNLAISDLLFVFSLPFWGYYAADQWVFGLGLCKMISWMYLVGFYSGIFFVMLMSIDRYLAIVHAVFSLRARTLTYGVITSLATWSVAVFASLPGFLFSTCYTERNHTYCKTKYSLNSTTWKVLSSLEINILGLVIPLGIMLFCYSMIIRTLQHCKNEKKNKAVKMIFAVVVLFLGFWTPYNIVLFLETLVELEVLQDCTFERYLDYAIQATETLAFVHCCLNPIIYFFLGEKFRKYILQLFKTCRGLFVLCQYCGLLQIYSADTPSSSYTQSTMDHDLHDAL

[8] = target: T5, Nitric oxide synthase, inducible (Mus musculus, UniProt P29477); parameters: species or system Escherichia coli
T5 sequence (P29477 whole entry): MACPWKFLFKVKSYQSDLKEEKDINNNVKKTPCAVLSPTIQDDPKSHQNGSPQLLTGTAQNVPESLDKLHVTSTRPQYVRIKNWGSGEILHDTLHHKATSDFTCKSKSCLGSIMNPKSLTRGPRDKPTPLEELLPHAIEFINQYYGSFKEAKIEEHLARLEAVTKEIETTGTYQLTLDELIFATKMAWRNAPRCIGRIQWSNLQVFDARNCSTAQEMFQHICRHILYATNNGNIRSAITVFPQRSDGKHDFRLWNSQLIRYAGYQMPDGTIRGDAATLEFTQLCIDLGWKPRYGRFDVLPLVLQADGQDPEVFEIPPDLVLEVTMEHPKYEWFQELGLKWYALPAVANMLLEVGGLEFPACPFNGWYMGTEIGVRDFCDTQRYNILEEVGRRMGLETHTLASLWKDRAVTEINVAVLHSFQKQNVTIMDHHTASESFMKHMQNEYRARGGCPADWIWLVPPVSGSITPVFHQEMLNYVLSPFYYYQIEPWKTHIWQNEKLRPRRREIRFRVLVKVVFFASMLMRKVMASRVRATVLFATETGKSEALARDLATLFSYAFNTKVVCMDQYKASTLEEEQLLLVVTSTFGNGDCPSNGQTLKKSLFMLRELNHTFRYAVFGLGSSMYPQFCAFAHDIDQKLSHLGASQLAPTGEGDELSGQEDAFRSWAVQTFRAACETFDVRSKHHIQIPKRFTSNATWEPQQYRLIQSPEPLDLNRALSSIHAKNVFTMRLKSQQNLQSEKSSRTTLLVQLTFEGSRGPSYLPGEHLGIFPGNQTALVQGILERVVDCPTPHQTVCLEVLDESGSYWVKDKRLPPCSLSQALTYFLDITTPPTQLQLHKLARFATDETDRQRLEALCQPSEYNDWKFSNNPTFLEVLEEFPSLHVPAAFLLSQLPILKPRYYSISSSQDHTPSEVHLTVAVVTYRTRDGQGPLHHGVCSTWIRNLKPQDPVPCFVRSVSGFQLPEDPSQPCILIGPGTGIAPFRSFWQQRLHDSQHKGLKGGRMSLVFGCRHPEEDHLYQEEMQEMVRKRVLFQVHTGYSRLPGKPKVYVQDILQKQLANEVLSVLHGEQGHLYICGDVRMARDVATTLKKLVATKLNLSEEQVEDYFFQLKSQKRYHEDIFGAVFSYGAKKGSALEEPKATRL

[9] = target: C-C chemokine receptor type 2 (Homo sapiens, UniProt P41597); assay type: cell membranes, CHO-K1, Membrane; settings: cho-k1; also: in other assays of this panel Not Active means under 50% inhibition at 10 µM
Chain of C-C chemokine receptor type 2 (P41597 whole entry): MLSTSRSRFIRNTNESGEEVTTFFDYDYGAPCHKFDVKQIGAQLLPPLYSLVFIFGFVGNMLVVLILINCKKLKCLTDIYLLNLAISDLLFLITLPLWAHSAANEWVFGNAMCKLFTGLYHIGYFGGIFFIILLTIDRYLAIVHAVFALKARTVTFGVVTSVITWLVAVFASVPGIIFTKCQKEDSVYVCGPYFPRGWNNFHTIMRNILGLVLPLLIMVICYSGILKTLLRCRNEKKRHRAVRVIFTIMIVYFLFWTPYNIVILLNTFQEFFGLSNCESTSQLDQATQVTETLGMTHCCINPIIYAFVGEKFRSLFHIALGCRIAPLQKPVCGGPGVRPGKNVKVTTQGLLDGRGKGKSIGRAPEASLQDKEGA

Chain of Insulin receptor (P15127 27-759 limits assumed): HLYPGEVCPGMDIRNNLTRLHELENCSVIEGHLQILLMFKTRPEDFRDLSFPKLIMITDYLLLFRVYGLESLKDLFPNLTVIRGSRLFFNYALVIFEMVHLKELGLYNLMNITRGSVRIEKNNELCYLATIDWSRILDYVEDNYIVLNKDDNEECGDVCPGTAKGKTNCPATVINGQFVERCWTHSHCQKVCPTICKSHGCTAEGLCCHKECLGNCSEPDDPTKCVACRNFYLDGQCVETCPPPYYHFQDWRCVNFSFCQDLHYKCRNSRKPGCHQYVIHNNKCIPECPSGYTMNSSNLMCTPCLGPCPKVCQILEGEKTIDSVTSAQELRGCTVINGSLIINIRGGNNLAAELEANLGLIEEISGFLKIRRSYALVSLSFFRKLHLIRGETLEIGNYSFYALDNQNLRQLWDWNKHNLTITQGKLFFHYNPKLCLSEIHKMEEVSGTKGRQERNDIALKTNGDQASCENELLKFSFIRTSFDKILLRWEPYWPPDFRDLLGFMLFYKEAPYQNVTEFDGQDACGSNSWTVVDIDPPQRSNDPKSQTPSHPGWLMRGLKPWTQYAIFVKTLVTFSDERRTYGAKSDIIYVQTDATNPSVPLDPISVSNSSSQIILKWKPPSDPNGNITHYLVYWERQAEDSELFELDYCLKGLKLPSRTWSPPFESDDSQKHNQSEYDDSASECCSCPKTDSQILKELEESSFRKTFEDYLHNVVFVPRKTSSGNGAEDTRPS
Chain of Insulin receptor (P15127 764-1383 limits assumed): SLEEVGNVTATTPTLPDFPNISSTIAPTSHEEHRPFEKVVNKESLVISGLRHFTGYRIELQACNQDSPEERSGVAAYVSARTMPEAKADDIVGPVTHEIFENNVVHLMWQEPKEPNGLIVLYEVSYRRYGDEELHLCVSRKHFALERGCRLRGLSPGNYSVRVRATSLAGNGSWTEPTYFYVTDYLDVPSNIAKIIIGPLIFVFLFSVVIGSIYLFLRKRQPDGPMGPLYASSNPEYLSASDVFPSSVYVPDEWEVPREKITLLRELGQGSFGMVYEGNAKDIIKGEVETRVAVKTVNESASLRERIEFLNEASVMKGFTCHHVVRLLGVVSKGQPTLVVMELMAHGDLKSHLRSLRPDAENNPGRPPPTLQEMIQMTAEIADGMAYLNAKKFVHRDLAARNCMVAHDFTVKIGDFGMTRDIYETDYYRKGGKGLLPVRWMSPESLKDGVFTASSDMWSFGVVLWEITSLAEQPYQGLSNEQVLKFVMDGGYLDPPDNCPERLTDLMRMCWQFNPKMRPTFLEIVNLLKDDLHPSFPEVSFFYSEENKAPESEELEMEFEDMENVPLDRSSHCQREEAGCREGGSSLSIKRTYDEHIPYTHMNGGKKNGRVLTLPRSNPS
Chain of Estrogen receptor beta (Q92731 whole entry): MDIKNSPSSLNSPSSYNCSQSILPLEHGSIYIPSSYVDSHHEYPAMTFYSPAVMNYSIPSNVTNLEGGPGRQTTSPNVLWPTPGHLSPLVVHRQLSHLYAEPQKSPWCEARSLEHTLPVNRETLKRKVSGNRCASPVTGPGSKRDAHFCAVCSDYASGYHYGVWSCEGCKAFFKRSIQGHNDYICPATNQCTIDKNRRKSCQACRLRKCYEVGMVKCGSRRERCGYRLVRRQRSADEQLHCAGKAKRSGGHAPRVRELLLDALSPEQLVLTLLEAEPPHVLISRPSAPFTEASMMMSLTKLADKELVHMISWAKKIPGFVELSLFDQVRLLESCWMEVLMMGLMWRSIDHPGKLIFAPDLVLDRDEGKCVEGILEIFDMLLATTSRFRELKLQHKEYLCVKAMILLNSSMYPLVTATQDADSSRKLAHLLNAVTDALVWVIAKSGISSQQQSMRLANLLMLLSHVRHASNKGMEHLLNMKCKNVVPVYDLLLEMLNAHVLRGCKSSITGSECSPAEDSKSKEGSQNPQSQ

CC[C@H](C)[C@H](N)C1=N[C@H](C(=O)N[C@@H](CC(C)C)C(=O)N[C@H](CCC(=O)O)C(=O)N[C@H](C(=O)N[C@H]2CCCCNC(=O)[C@H](CC(N)=O)NC(=O)[C@@H](CC(=O)O)NC(=O)[C@H](Cc3cnc[nH]3)NC(=O)[C@@H](Cc3ccccc3)NC(=O)[C@H]([C@@H](C)CC)NC(=O)[C@@H](CCCN)NC2=O)[C@@H](C)CC)CS1 [BACITRACIN] ({Ileψ(thiazoline)Cys}-L[dE]IK[dOrn]I[dF]H[dD]N; lactam 4-C)
Not Active: IC50 (Estrogen receptor beta) | IC50 (Insulin receptor) | IC50 [1] | IC50 [2] | Ki [2] | IC50 (Leukotriene C4 synthase) | IC50 [3] | Ki [3] | IC50 (Neutrophil elastase) | IC50 [4] | Ki [4] | IC50 [5] | Ki [5] | IC50 [6] | IC50 [7] | IC50 [8] | IC50 [9]

CCCC[C@@H](CC)COC(=O)c1ccccc1C(=O)OC[C@@H](CC)CCCC [BIS(2-ETHYLHEXYL)PHTHALATE]
Not Active: IC50 (Estrogen receptor beta) | IC50 (Insulin receptor) | IC50 [1] | IC50 [2] | Ki [2] | IC50 (Leukotriene C4 synthase) | IC50 [3] | Ki [3] | IC50 (Neutrophil elastase) | IC50 [4] | Ki [4] | IC50 [5] | Ki [5] | IC50 [6] | IC50 [7] | IC50 [8] | IC50 [9]

Nc1nc(=O)[nH]cc1F [FLUCYTOSINE]
Not Active: IC50 (Estrogen receptor beta) | IC50 (Insulin receptor) | IC50 [1] | IC50 [2] | Ki [2] | IC50 (Leukotriene C4 synthase) | IC50 [3] | Ki [3] | IC50 (Neutrophil elastase) | IC50 [4] | Ki [4] | IC50 [5] | Ki [5] | IC50 [6] | IC50 [7] | IC50 [8] | IC50 [9]

N#C[C@H](O[C@@H]1O[C@H](CO[C@@H]2O[C@H](CO)[C@@H](O)[C@H](O)[C@H]2O)[C@@H](O)[C@H](O)[C@H]1O)c1ccccc1 [AMYGDALIN]
Not Active: IC50 (Estrogen receptor beta) | IC50 (Insulin receptor) | IC50 [1] | IC50 [2] | Ki [2] | IC50 (Leukotriene C4 synthase) | IC50 [3] | Ki [3] | IC50 (Neutrophil elastase) | IC50 [4] | Ki [4] | IC50 [5] | Ki [5] | IC50 [6] | IC50 [7] | IC50 [8] | IC50 [9]

Nc1nc2c(ncn2COC(CO)CO)c(=O)[nH]1 [GANCICLOVIR]
Not Active: IC50 (Estrogen receptor beta) | IC50 (Insulin receptor) | IC50 [1] | IC50 [2] | Ki [2] | IC50 (Leukotriene C4 synthase) | IC50 [3] | Ki [3] | IC50 (Neutrophil elastase) | IC50 [4] | Ki [4] | IC50 [5] | Ki [5] | IC50 [6] | IC50 [7] | IC50 [8] | IC50 [9]

CCCCOC(=O)c1ccc(N)cc1 [BUTAMBEN]
Not Active: IC50 (Estrogen receptor beta) | IC50 (Insulin receptor) | IC50 [1] | IC50 [2] | Ki [2] | IC50 (Leukotriene C4 synthase) | IC50 [3] | Ki [3] | IC50 (Neutrophil elastase) | IC50 [4] | Ki [4] | IC50 [5] | Ki [5] | IC50 [6] | IC50 [7] | IC50 [8] | IC50 [9]
